# From patent US5358707A, “Oxidized variants of GM-CSF” (Schering Corporation, priority 1992, dated 1994)
# Where “and” joins values, the source holds several entries; their conditions need not be identical. Equal entries are not always repeated.
# How the values were obtained:
# KG-1 cells = experiment: KG-1 Cell Bioassay (MTT, cell growth stimulation); type: cell-based, human
# Method: Briefly, cultures of about 1×10^4 cells were incubated with dilutions of the various proteins in Iscove's modified Dulbecco's medium at 37° C. for 6 days. The tetrazolium salt MTT (3-[4,5-Dimethylthiazol-2-yl]-2,5-diphenyltetrazolium bromide; Thiazolyl blue) was then added at a final concentration of 0.5 mg/ml, and incubation was continued for another 4 hours. MTT is cleaved by mitochondrial dehydrogenase enzymes to produce a colored reaction product, formazan, the quantity of which is directly related to LOG2 cell concentration.
# [1] = Analytical isoelectric focusing; type: physicochemical
substance,measurement,setting,value
GM-CSF: Unoxidized recombinant mature human GM-CSF produced in E. coli; designated V0 when isolated from the secretory expression extract,Biological Activity (Units/mg × 10^-9),"KG-1 cells; KG-1 cells, 6 days, MTT, titer from dilution producing 50% maximal cell growth stimulation vs standard GM-CSF, MET-O and V variants analysed at different times",2.9 Units/mg × 10^-9 and 5.3 Units/mg × 10^-9
same,Biological Activity (% GM-CSF Activity),KG-1 cells; percentage of the unoxidized GM-CSF specific bioactivity of the same run,100%
same,pI,[1],about 5.3
